Assay results taken from PubChem BioAssay AID1919014 (Molecular Pharmacology Branch, DTP, NCI, 2023).

System: NCI-H1341 complex spheroids, percent test/control
Assay: Anticancer human tumor NCI-H1341 cell line growth inhibition [AhR];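 also: spheroids exposed to agents for seven days before readout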
Settings: for IC50: curve of first compound; for viability, T/C: stronger effect = lower value
Summary of the method: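 Complex tumor spheroids co-cultured with HUVEC and human MSC stroma; AhR antagonists tested in combination with standard-of-care and investigational agents. Top concentration at or near clinical Cmax (else 10 microM), half-log dilutions; growth expressed as percent test/control.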

Nc1ccn(C2OC(CO)C(O)C2(F)F)c(=O)n1 (stereo not given) + CC(CO)NC(=O)c1cc(-c2ccc(Cl)cc2)nn(-c2cnn(C)c2)c1=O
IC50 (second compound 0.1 µM): < 31.6 nM
IC50 (second compound 0.316 µM): < 31.6 nM
IC50 (second compound 1 µM): < 31.6 nM
IC50 (second compound 3.16 µM): < 31.6 nM
IC50 (second compound 10 µM): < 31.6 nM
viability, T/C (second compound 0.1 µM, first compound 0.0316 µM): 28%
viability, T/C (second compound 0.1 µM, first compound 0.1 µM): 28%
viability, T/C (second compound 0.1 µM, first compound 0.316 µM): 27.7%
viability, T/C (second compound 0.1 µM, first compound 1 µM): 25.3%
viability, T/C (second compound 0.1 µM, first compound 3.16 µM): 27.3%
viability, T/C (second compound 0.1 µM, first compound 10 µM): 26.4%
viability, T/C (second compound 0.316 µM, first compound 0.0316 µM): 30.9%
viability, T/C (second compound 0.316 µM, first compound 0.1 µM): 29.1%
viability, T/C (second compound 0.316 µM, first compound 0.316 µM): 25.6%
viability, T/C (second compound 0.316 µM, first compound 1 µM): 26.9%
viability, T/C (second compound 0.316 µM, first compound 3.16 µM): 24.4%
viability, T/C (second compound 0.316 µM, first compound 10 µM): 24.1%
viability, T/C (second compound 1 µM, first compound 0.0316 µM): 28.6%
viability, T/C (second compound 1 µM, first compound 0.1 µM): 29.3%
viability, T/C (second compound 1 µM, first compound 0.316 µM): 30.5%
viability, T/C (second compound 1 µM, first compound 1 µM): 23.8%
viability, T/C (second compound 1 µM, first compound 3.16 µM): 26.1%
viability, T/C (second compound 1 µM, first compound 10 µM): 25.9%
viability, T/C (second compound 3.16 µM, first compound 0.0316 µM): 30.1%
viability, T/C (second compound 3.16 µM, first compound 0.1 µM): 29.1%
viability, T/C (second compound 3.16 µM, first compound 0.316 µM): 30%
viability, T/C (second compound 3.16 µM, first compound 1 µM): 24%
viability, T/C (second compound 3.16 µM, first compound 3.16 µM): 25.3%
viability, T/C (second compound 3.16 µM, first compound 10 µM): 27%
viability, T/C (second compound 10 µM, first compound 0.0316 µM): 33.6%
viability, T/C (second compound 10 µM, first compound 0.1 µM): 29.8%
viability, T/C (second compound 10 µM, first compound 0.316 µM): 27.4%
viability, T/C (second compound 10 µM, first compound 1 µM): 24.3%
viability, T/C (second compound 10 µM, first compound 3.16 µM): 22.3%
viability, T/C (second compound 10 µM, first compound 10 µM): 21.4%
